Tests used:
[1] = target: T1, Tyrosine-protein phosphatase non-receptor type 1 (Homo sapiens, UniProt P18031); assay: Inhibition of N-terminal GST tagged recombinant human PTP1B catalytic domain (1 to 321 residues) expressed in Escherichia coli using pNPP as substrate preincubated for 10 mins followed by substrate addition and measured every 5 mins for 30 mins
T1 sequence (P18031 whole entry): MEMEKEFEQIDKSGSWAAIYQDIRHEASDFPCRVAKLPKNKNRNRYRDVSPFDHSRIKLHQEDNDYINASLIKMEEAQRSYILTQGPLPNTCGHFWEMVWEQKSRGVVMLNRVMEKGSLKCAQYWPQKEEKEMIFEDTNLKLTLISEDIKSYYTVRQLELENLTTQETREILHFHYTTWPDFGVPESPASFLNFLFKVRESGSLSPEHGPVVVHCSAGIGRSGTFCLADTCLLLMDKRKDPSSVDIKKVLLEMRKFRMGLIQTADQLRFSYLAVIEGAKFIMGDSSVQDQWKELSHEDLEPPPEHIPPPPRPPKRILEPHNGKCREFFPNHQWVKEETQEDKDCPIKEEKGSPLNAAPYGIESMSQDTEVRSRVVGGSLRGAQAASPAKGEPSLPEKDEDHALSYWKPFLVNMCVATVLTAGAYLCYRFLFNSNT

[2] = target: T1, Tyrosine-protein phosphatase non-receptor type 1; assay: (§1) Competitive inhibition of N-terminal GST-tagged recombinant human PTP1B catalytic domain (1 to 321 residues) expressed in Escherichia coli assessed as inhibitory constant using pNPP as substrate preincubated for 10 mins followed by incubation with substrate for 30 mins and measured every 5 mins for 30 mins by Lineweaver-burk plot based Dixon plot analysis
[3] = target: T2, Tyrosine-protein phosphatase non-receptor type 1 (Homo sapiens) (UniProt P18031); assay: as §1, with “Ratio” for “Competitive inhibition”, “of kinetic constant Kik to Kiv at” for “of”, “coli” for “coli assessed as inhibitory constant”, “plot” for “plot based Dixon plot”
T2 sequence (whole entry): T1 sequence (P18031 whole entry)

SMILES | IC50 [1] | Ki [2] | Ratio [3]
COC(=O)[C@H]1COC(=O)C2=C(C)C[C@@H](O)[C@@H]21 | > 80 µM | – | –
CC1=C2C(=O)OCC[C@H]2[C@H](O)C1 | > 80 µM | – | –
COC(=O)C1=C(C)C[C@@H](O)[C@@H]1[C@H](CO)C(=O)OC | > 80 µM | – | –
COC(=O)C1=C(C)C[C@@H](O)[C@@H]1CCO | > 80 µM | – | –
COC(=O)[C@@H](CO)[C@@H]1C(CO)=C(C)C[C@H]1O | > 80 µM | – | –
CC1=C(CO)[C@@H](CCO)[C@H](O)C1 | > 80 µM | – | –

The next lines start with the values.

IC50 [1] | Ki [2] | Ratio [3] | SMILES
> 80 µM | – | – | COC(=O)[C@H](CO)[C@@H]1C(CO)=C(C)C[C@H]1O
22.2 µM | – | – | COC(=O)C1=CO[C@@]2(C)C[C@@H](O)[C@H]1[C@@H]2CO
8.9 µM | 2.57 µM | 6.86 to 37.6 | CC1=C2COC(=O)[C@@H](CO)[C@H]2[C@H](O)C1
43.6 µM | – | – | CC1=C[C@@H](O)[C@@H]2[C@@H](CO)C(=O)O[C@]12CO
9.8 µM | 4.13 µM | 6.86 to 37.6 | CC1=C2COC(=O)[C@H](CO)[C@H]2[C@H](O)C1
